# Test results published in doi:10.1101/2020.11.09.375162v1 (biorxiv, 2020).
# Like-named read-outs stand apart in the source and are kept apart here.
# Columns and labels:
# [1] = target: T1, human CB2 receptor (hCB2) (Homo sapiens, UniProt P34972); experiment: cell-based; conditions: read-out: cAMP Emax hCB2
# [2] = target: T2, human CB1 receptor (hCB1) (Homo sapiens, UniProt P21554); experiment: biochemical
# [3] = target: T1, human CB2 receptor (hCB2); experiment: [3H]-CP55940 competition, membranes; format: binding
# [4] = target: T2, human CB1 receptor (hCB1); experiment: cell-based; conditions: read-out: cAMP Emax hCB1
# [5] = target: T3, mouse CB2 receptor (mCB2) (Mus musculus, UniProt P47936); experiment: cell-based; conditions: read-out: cAMP Emax mCB2
# [6] = target: T2, human CB1 receptor (hCB1); experiment: cell-based
# [7] = target: T3, mouse CB2 receptor (mCB2); experiment: cell-based
# [8] = target: T3, mouse CB2 receptor (mCB2); experiment: biochemical
# [9] = target: T2, human CB1 receptor (hCB1); experiment: [3H]-CP55940 competition, membranes; format: binding
# [10] = target: T2, human CB1 receptor (hCB1); experiment: cAMP assay, CHO cells; format: cell-based; conditions: agonist
# [11] = target: T3, mouse CB2 receptor (mCB2); experiment: cAMP assay, CHO cells; format: cell-based; conditions: agonist
# [12] = target: T1, human CB2 receptor (hCB2); experiment: PathHunter beta-arrestin recruitment, CHO-K1; format: cell-based
# [13] = target: T3, mouse CB2 receptor (mCB2); experiment: cAMP assay, CHO cells; format: cell-based
# [14] = target: T1, human CB2 receptor (hCB2); conditions: Gi3 activation
# [15] = target: T1, human CB2 receptor (hCB2); conditions: Gi1 activation
# [16] = target: T1, human CB2 receptor (hCB2); conditions: GoB activation
# [17] = target: T1, human CB2 receptor (hCB2); conditions: Gi2 activation
# [18] = target: T1, human CB2 receptor (hCB2); conditions: GoA activation
# [19] = target: T1, human CB2 receptor (hCB2); conditions: beta-arrestin1 recruitment
# [20] = target: T1, human CB2 receptor (hCB2); conditions: beta-arrestin2 recruitment
# [21] = target: T2, human CB1 receptor (hCB1); experiment: [3H]-CP55940 competition, membranes; format: binding; remark: listed apart in the source
# [22] = target: T2, human CB1 receptor (hCB1); experiment: PathHunter beta-arrestin recruitment, CHO-K1; format: cell-based
# [23] = target: T3, mouse CB2 receptor (mCB2); experiment: [3H]-CP55940 competition, membranes; format: binding
# T2 sequence (P21554 whole entry): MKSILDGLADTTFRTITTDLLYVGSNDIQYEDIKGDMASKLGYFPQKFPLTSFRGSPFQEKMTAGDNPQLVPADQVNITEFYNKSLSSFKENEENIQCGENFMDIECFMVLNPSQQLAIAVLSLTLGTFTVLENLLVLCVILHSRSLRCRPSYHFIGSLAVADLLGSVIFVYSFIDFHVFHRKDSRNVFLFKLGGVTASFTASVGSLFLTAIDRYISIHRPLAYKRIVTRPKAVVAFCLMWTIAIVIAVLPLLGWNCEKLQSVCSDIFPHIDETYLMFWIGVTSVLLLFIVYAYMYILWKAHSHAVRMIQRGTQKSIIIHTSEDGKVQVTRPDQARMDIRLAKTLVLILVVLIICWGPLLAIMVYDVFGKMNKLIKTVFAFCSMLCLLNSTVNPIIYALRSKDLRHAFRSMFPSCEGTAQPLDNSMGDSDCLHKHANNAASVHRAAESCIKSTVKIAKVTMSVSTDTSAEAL
# T1 sequence (P34972 whole entry): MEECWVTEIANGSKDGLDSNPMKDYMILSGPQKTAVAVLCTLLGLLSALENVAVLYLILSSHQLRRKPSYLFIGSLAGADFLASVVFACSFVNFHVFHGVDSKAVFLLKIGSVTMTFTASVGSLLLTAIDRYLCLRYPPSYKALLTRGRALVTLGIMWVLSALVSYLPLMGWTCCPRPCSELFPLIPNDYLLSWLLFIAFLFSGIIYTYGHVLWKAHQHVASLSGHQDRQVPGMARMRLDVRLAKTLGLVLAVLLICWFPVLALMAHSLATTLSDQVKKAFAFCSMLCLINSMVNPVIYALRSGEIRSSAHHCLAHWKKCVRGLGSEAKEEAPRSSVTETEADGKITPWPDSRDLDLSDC
# T3 sequence (P47936 whole entry): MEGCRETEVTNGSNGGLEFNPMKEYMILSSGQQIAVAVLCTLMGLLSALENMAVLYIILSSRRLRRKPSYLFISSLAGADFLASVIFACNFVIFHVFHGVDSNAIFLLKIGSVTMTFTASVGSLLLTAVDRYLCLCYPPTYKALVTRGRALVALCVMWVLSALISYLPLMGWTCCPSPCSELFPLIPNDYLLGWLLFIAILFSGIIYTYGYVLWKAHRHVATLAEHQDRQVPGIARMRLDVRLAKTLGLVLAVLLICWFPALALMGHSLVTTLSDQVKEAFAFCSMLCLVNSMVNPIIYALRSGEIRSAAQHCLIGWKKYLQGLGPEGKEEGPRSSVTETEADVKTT
smiles,measurement,setting,value
OCCSc1nc(N2CCC(F)(F)C2)c2nnn(Cc3ccccc3Cl)c2n1 [RO6878558],Emax,[1],87%
same,Ki,[2],> 10 µM
same,pKi,[3],6.94
same,Emax,[4],20%
same,Emax,[5],92%
same,EC50,[6],> 10 µM
CCOC(=O)[C@H](CC(C)C)NC(=O)c1ccc(C2CC2)c(Cc2ccc(F)cc2)n1 [RO6853973],Emax,[1],45%
same,EC50,[7],> 10 µM
same,Ki,[8],0.676 nM
same,pKi,[3],9.45
same,Emax,[4],83%
same,pKi,[9],8.21
same,Emax,[5],23%
same,cAMP pEC50,[10],8.12
CCCCCCC(C)(C)c1ccc([C@@H]2C[C@H](O)CC[C@H]2CCCO)c(O)c1 [CP55940],cAMP pEC50,[11],10.17
CN1CCCCC1Cn1cc(C(=O)c2cc([N+](=O)[O-])ccc2I)c2ccccc21 (racemic) [(rac)-AM1241],EC50,[12],> 10 µM
"CC(C)(C)c1noc(-c2ccc(C3CC3)c(Cc3ccc(F)cc3)n2)n1 [RO6892033, 6-(3-tert-Butyl-1,2,4-oxadiazol-5-yl)-3-cyclopropyl-2-[(4-fluorophenyl)methyl]pyridine]",Emax,[1],66%
same,Ki,[8],7.59 nM
same,Emax,[4],70%
same,Emax,[5],45%
same,EC50,[13],4.07 nM
CCN1CCN(c2nc(C3CC3)nc3c2nnn3Cc2ccccc2Cl)CC1 [RO6435559],Gi3 pEC50,[14],7.941 M
same,Gi1 pEC50,[15],7.984 M
same,GoB pEC50,[16],7.794 M
same,Gi2 pEC50,[17],8.154 M
same,GoA pEC50,[18],7.998 M
same,β-arrestin1 pEC50,[19],8.518 M
same,β-arrestin2 pEC50,[20],8.131 M
O=S(=O)(Cc1ccccc1)c1nc(N2CCC(F)(F)C2)c2nnn(Cc3ccccc3Cl)c2n1 [RO6871487],Emax,[1],52%
same,EC50,[7],> 10 µM
same,Ki,[8],6.92 nM
same,Ki,[2],4.57 µM
same,Emax,[4],9%
same,Emax,[5],24%
same,EC50,[6],> 10 µM
CCCCCCC(C)(C)c1cc(OC)c([C@@H]2C=C(CO)[C@@H]3C[C@H]2C3(C)C)c(OC)c1 [HU308],Ki,[21],> 10 µM
same,EC50,[22],> 10 µM
CCOC(=O)C(CC)(CC)NC(=O)c1ccc(N2CCCC2)c(OCC2CC2)n1 [RO6843766],Emax,[1],91%
same,Ki,[2],0.617 µM
same,Emax,[4],59%
same,Emax,[5],61%
CN1CCN(c2nc(C(C)(C)C)nc3c2nnn3Cc2ccccc2Cl)CC1 [RO6844395],Emax,[1],99%
same,Gi3 pEC50,[14],7.994 M
same,Gi1 pEC50,[15],7.855 M
same,cAMP pEC50 mCB2,"[7]; cAMP, agonist",7.30 M
same,pKi hCB1,[2]; binder,5.76 M
same,Gi2 pEC50,[17],7.499 M
same,pKi,[3],7.67
same,Emax,[4],57%
same,GoA pEC50,[18],7.607 M
same,Emax,[5],80%
same,pKi,[23],6.87
CC(C)(C)c1nc(-c2cc(OCc3ccc(F)cc3)c(C3CC3)c(Cl)n2)no1 [RO6926274],cAMP pEC50,[13],< 5
